Each structure is given as a SMILES string.

GCN2, sequence (Q9P2K8 whole entry): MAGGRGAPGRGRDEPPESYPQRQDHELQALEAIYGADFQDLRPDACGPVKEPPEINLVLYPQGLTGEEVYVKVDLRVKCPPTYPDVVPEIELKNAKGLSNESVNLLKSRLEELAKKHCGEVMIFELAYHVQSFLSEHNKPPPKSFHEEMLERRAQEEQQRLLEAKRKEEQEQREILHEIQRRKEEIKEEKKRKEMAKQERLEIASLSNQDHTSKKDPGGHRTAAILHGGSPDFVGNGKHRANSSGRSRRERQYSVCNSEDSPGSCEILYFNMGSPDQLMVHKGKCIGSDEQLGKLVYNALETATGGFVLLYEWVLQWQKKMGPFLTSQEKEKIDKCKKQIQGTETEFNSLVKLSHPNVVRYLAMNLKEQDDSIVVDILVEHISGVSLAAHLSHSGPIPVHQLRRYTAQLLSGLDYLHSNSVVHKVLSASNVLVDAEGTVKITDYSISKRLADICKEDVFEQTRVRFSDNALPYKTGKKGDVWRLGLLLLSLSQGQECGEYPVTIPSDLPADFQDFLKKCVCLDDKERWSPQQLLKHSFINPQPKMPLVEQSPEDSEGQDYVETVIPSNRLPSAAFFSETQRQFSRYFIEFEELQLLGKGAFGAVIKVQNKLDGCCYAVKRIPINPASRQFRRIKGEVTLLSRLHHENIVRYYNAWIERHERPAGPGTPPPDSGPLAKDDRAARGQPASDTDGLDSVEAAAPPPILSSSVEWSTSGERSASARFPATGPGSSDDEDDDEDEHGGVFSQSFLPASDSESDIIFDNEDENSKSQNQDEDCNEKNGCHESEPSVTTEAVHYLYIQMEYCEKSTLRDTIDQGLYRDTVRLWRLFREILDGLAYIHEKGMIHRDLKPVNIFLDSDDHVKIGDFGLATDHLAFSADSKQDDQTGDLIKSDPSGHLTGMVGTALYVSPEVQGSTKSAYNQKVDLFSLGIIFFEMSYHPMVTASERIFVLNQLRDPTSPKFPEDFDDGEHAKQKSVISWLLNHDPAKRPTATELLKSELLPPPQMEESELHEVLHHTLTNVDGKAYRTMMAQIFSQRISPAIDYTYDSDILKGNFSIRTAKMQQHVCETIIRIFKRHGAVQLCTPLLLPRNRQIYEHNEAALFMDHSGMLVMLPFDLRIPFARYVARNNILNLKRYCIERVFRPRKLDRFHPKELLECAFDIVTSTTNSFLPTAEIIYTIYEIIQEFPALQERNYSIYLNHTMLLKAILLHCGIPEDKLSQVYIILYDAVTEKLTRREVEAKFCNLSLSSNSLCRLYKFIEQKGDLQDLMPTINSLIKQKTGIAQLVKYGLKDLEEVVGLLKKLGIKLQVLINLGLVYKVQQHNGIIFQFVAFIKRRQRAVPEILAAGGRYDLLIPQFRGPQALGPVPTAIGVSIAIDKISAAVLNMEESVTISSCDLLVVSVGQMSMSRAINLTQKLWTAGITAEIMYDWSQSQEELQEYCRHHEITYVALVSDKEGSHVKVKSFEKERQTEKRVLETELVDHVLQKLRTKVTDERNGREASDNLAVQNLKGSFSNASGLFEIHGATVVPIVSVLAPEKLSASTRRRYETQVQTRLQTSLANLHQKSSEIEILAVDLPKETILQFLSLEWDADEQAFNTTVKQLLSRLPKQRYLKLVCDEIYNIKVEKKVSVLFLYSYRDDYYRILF

The assay concerns the target GCN2 (Homo sapiens (Human), UniProt Q9P2K8). The assay can be described thus: GCN2 Biochemical Assay (TR-FRET, GFP-eIF2S1 substrate phosphorylation). Conditions: read-out: IC50 (GCN2 Inhibitory Activity). A digest of the protocol: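 In-house GCN2 (1.6 nM 2× stock) phosphorylates GFP-eIF2S1 (50 nM 2× stock) with ATP (0.2 mM 2× stock) and tRNA, pH 7.5, 70 min at room temperature; 10-point 3.16-fold compound series. TR-FRET detection with Tb-anti-phospho antibody, 2–3 h, Ex 340/Em 490/520 nm; artifact plate spiked with phospho-substrate.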
Background: In TR-FRET formats the signal depends on donor and acceptor labels being close together.
As for `Cc1cnc(Nc2cc(C)n(C)n2)nc1-c1c[nH]c2c(NC(=O)CN3CC[C@H](Oc4nc(NCC5CC5)ncc4F)C3)cccc12` [Example 229, (S)-2-(3-((2-((cyclopropylmethyl)amino)-5-fluoropyrimidin-4-yl)oxy)pyrrolidin-1-yl)-N-(3-(2-((1,5-dimethyl-1H-pyrazol-3-yl)amino)-5-methylpyrimidin-4-yl)-1H-indol-7-yl)acetamide], the IC50 (as a rule, the point on the concentration scale where inhibition reaches its midpoint) lay in the range of 10 to 100 nM. In the case of `Cc1cnc(Nc2cc(C)n(C)n2)nc1-c1c[nH]c2c(NC(=O)CN3CCC(Oc4ccncc4)C3)cccc12` (stereo not shown) [Example 76, N-(3-(2-((1,5-dimethyl-1H-pyrazol-3-yl)amino)-5-methylpyrimidin-4-yl)-1H-indol-7-yl)-2-(3-(pyridin-4-yloxy)pyrrolidin-1-yl)acetamide] it was < 10 nM; in that of `CCNc1nccc(O[C@H]2CCN(CC(=O)Nc3cccc4c(-c5nc(Nc6cc(C)n(C)n6)ncc5C)c[nH]c34)C2)n1` [Example 203, (S)-N-(3-(2-((1,5-dimethyl-1H-pyrazol-3-yl)amino)-5-methylpyrimidin-4-yl)-1H-indol-7-yl)-2-(3-((2-(ethylamino)pyrimidin-4-yl)oxy)pyrrolidin-1-yl)acetamide], < 10 nM.

On to `Cc1cnc(Nc2cc(C)n(C)n2)nc1-c1c[nH]c2c(N3Cc4c(cccc4-c4cccn4C(=O)OC(C)(C)C)C3=O)cccc12` [Example 443, tert-butyl 2-(2-(3-(2-((1,5-dimethyl-1H-pyrazol-3-yl)amino)-5-methylpyrimidin-4-yl)-1H-indol-7-yl)-1-oxoisoindolin-4-yl)-1H-pyrrole-1-carboxylate], for which the half-inhibitory concentration (IC50) lay within 10 to 100 nM. The value for `Cc1cnc(Nc2cc(C)n(C)n2)nc1-c1c[nH]c2c(N3Cc4c(cccc4C4=CCN(S(C)(=O)=O)CC4)C3=O)cccc12` [Example 465, 2-(3-(2-((1,5-dimethyl-1H-pyrazol-3-yl)amino)-5-methylpyrimidin-4-yl)-1H-indol-7-yl)-4-(1-(methylsulfonyl)-1,2,3,6-tetrahydropyridin-4-yl)isoindolin-1-one] was < 10 nM; that for `Cc1cnc(Nc2cc(C)n(C)n2)nc1-c1c[nH]c2c(NC(=O)CN3CCC(Oc4cc(C(F)(F)F)n(C)n4)C3)cccc12` (stereo in doubt) [Example 117, (R)-N-(3-(2-((1,5-dimethyl-1H-pyrazol-3-yl)amino)-5-methylpyrimidin-4-yl)-1H-indol-7-yl)-2-(3-((1-methyl-5-(trifluoromethyl)-1H-pyrazol-3-yl)oxy)pyrrolidin-1-yl)acetamide] was 10 to 100 nM. The value for `CCN(CC)c1ccnc(O[C@H]2CCN(CC(=O)Nc3cccc4c(-c5nc(Nc6cc(C)n(C)n6)ncc5C)c[nH]c34)C2)n1` [Example 172, (S)-2-(3-((4-(diethylamino)pyrimidin-2-yl)oxy)pyrrolidin-1-yl)-N-(3-(2-((1,5-dimethyl-1H-pyrazol-3-yl)amino)-5-methylpyrimidin-4-yl)-1H-indol-7-yl)acetamide] was < 10 nM; that for `Cc1cnc(Nc2cc(C)n(C)n2)nc1-c1c[nH]c2c(N3Cc4c(cccc4-c4c(C)noc4C)C3=O)cccc12` [Example 444, 2-(3-(2-((1,5-dimethyl-1H-pyrazol-3-yl)amino)-5-methylpyrimidin-4-yl)-1H-indol-7-yl)-4-(3,5-dimethylisoxazol-4-yl)isoindolin-1-one] was < 10 nM. In the case of `Cc1cnc(Nc2cc(C)n(C)n2)nc1-c1c[nH]c2c(NC(=O)CN3C[C@@H](Oc4ccnc(NC5CC5)n4)CC3=O)cccc12` [Example 61, (S)-2-(4-((2-(cyclopropylamino)pyrimidin-4-yl)oxy)-2-oxopyrrolidin-1-yl)-N-(3-(2-((1,5-dimethyl-1H-pyrazol-3-yl)amino)-5-methylpyrimidin-4-yl)-1H-indol-7-yl)acetamide] it was < 10 nM; in that of `Cc1cnc(Nc2cc(C)n(C)n2)nc1-c1c[nH]c2c(N3Cc4c(NS(C)(=O)=O)cccc4C3=O)cccc12` [Example 342, N-(2-(3-(2-((1,5-dimethyl-1H-pyrazol-3-yl)amino)-5-methylpyrimidin-4-yl)-1H-indol-7-yl)-1-oxoisoindolin-4-yl)methanesulfonamide], < 10 nM; in that of `Cc1cnc(Nc2cc(C)n(C)n2)nc1-c1c[nH]c2c(NC(=O)CN3CC[C@H](Oc4cc(N)[nH]n4)C3)cccc12` [Example 119, (S)-2-(3-((5-amino-1H-pyrazol-3-yl)oxy)pyrrolidin-1-yl)-N-(3-(2-((1,5-dimethyl-1H-pyrazol-3-yl)amino)-5-methylpyrimidin-4-yl)-1H-indol-7-yl)acetamide], 10 to 100 nM. For the compound `Cc1cnc(Nc2cc(C)n(C)n2)nc1-c1c[nH]c2c(N3Cc4cccc(NS(=O)(=O)c5ccccc5)c4C3=O)cccc12` [Example 340, N-(2-(3-(2-((1,5-dimethyl-1H-pyrazol-3-yl)amino)-5-methylpyrimidin-4-yl)-1H-indol-7-yl)-3-oxoisoindolin-4-yl)benzenesulfonamide], the IC50 lay within 100 to 1000 nM. In the case of `Cc1cnc(Nc2cc(C)n(C)n2)nc1-c1c[nH]c2c(NC(=O)CN3CC[C@H](Oc4ccnc(NC(C)C)n4)C3)cccc12` [Example 211, (S)-N-(3-(2-((1,5-dimethyl-1H-pyrazol-3-yl)amino)-5-methylpyrimidin-4-yl)-1H-indol-7-yl)-2-(3-((2-(isopropylamino)pyrimidin-4-yl)oxy)pyrrolidin-1-yl)acetamide] it was < 10 nM.

For the compound `Cc1cnc(Nc2cc(C)n(C)n2)nc1-c1c[nH]c2c(N3Cc4cccc(N5CCOCC5)c4C3=O)cccc12` [Example 347, 2-(3-(2-((1,5-dimethyl-1H-pyrazol-3-yl)amino)-5-methylpyrimidin-4-yl)-1H-indol-7-yl)-7-morpholinoisoindolin-1-one], the IC50 is 10 to 100 nM. In the case of `Cc1cnc(Nc2cc(C)n(C)n2)nc1-c1c[nH]c2c(NC(=O)CN3CC(Oc4ccncn4)C3)cccc12` [Example 29, N-(3-(2-((1,5-dimethyl-1H-pyrazol-3-yl)amino)-5-methylpyrimidin-4-yl)-1H-indol-7-yl)-2-(3-(pyrimidin-4-yloxy)azetidin-1-yl)acetamide] it was 10 to 100 nM.

On to `CC(=O)N1CC=C(c2cccc3c2CN(c2cccc4c(-c5nc(Nc6cc(C)n(C)n6)ncc5C)c[nH]c24)C3=O)CC1` [Example 466, 4-(1-acetyl-1,2,3,6-tetrahydropyridin-4-yl)-2-(3-(2-((1,5-dimethyl-1H-pyrazol-3-yl)amino)-5-methylpyrimidin-4-yl)-1H-indol-7-yl)isoindolin-1-one], for which the IC50 is < 10 nM.

Turning to `Cc1cnc(Nc2cc(C)n(C)n2)nc1-c1c[nH]c2c(NC(=O)CN3CCC(O)C3)cccc12` (stereo not shown) [Example 70, N-(3-(2-((1,5-dimethyl-1H-pyrazol-3-yl)amino)-5-methylpyrimidin-4-yl)-1H-indol-7-yl)-2-(3-hydroxypyrrolidin-1-yl)acetamide], the IC50 was in the range of 10 to 100 nM.

Turning to `COc1ncccc1-c1cccc2c1CN(c1cccc3c(-c4nc(Nc5cc(C)n(C)n5)ncc4C)c[nH]c13)C2=O` [Example 435, 2-(3-(2-((1,5-dimethyl-1H-pyrazol-3-yl)amino)-5-methylpyrimidin-4-yl)-1H-indol-7-yl)-4-(2-methoxypyridin-3-yl)isoindolin-1-one], the IC50 was < 10 nM.

Take `Cc1cnc(Nc2cc(C)n(C)n2)nc1-c1c[nH]c2c(N(C)C(=O)CN3CC[C@H](Oc4ccncn4)C3)cccc12` [Example 21, (S)-N-(3-(2-((1,5-dimethyl-1H-pyrazol-3-yl)amino)-5-methylpyrimidin-4-yl)-1H-indol-7-yl)-N-methyl-2-(3-(pyrimidin-4-yloxy)pyrrolidin-1-yl)acetamide]: the IC50 was 10 to 100 nM. Turning to `Cc1cnc(Nc2cc(C)n(C)n2)nc1-c1c[nH]c2c(NC(=O)CN3CC[C@H](Oc4noc5ccccc45)C3)cccc12` [Example 113, (S)-2-(3-(benzo[d]isoxazol-3-yloxy)pyrrolidin-1-yl)-N-(3-(2-((1,5-dimethyl-1H-pyrazol-3-yl)amino)-5-methylpyrimidin-4-yl)-1H-indol-7-yl)acetamide], the IC50 lay within 10 to 100 nM.

For `Cc1cnc(Nc2cc(C)n(C)n2)nc1-c1c[nH]c2c(N3Cc4c(-c5ccncc5)ccc([N+](=O)[O-])c4C3=O)cccc12` [Example 489, 2-(3-(2-((1,5-dimethyl-1H-pyrazol-3-yl)amino)-5-methylpyrimidin-4-yl)-1H-indol-7-yl)-7-nitro-4-(pyridin-4-yl)isoindolin-1-one], the IC50 was < 10 nM. Take `Cc1cnc(Nc2cc(C)n(C)n2)nc1-c1c[nH]c2c(NC(=O)CN3CC[C@H](Oc4nccc(NC5CC5)n4)C3)cccc12` [Example 175, (S)-2-(3-((4-(cyclopropylamino)pyrimidin-2-yl)oxy)pyrrolidin-1-yl)-N-(3-(2-((1,5-dimethyl-1H-pyrazol-3-yl)amino)-5-methylpyrimidin-4-yl)-1H-indol-7-yl)acetamide]: the IC50 was < 10 nM. Regarding `Cc1cnc(Nc2cc(C)n(C)n2)nc1-c1c[nH]c2c(NC(=O)CN3CC[C@H](Oc4cncc(NC5CC5)n4)C3)cccc12` [Example 243, (S)-2-(3-((6-(cyclopropylamino)pyrazin-2-yl)oxy)pyrrolidin-1-yl)-N-(3-(2-((1,5-dimethyl-1H-pyrazol-3-yl)amino)-5-methylpyrimidin-4-yl)-1H-indol-7-yl)acetamide], the IC50 fell in the range of 10 to 100 nM. In the case of `Cc1cc(Nc2ncc(C3CC3)c(-c3c[nH]c4c(NC(=O)CN5CC[C@H](Oc6ccnc(NC7CC7)n6)C5)cccc34)n2)nn1C` [Example 12, (S)-N-(3-(5-cyclopropyl-2-((1,5-dimethyl-1H-pyrazol-3-yl)amino)pyrimidin-4-yl)-1H-indol-7-yl)-2-(3-((2-(cyclopropylamino)pyrimidin-4-yl)oxy)pyrrolidin-1-yl)acetamide] it was 10 to 100 nM; in that of `Cc1cnc(Nc2cc(C)n(C)n2)nc1-c1c[nH]c2c(NC(=O)CN3CC[C@H](Oc4ncc(F)c(NC5CC5)n4)C3)cccc12` [Example 179, (S)-2-(3-((4-(cyclopropylamino)-5-fluoropyrimidin-2-yl)oxy)pyrrolidin-1-yl)-N-(3-(2-((1,5-dimethyl-1H-pyrazol-3-yl)amino)-5-methylpyrimidin-4-yl)-1H-indol-7-yl)acetamide], < 10 nM.

These data come from US20240025884A1 (Dong-A ST Co., Ltd., priority 2022, published 2024).
